In patent US12691100B2, “NMT inhibitor treatment of a senescence-associated disease or disorder of the liver” (Imperial College Innovations Limited, priority 2020, dated 2026):

Experiment: High fat diet model of nonalcoholic steatohepatitis (NASH)
Assay type: in vivo, male C57/BL6 mice
Conditions: HFD mice, 10 mg/kg
Text: For high-fat diet experiments C57BL/6J male mice aged 8-weeks old were placed on Chow or high-fat diet (kcal 40% fat (non-trans-fat Primex Shortening), kcal 20% fructose, 2% cholesterol, D1602230i) for 4 weeks prior to first round of injections. […] Blood was collected prior to each round of injection for physiological assessments. Mice were allowed to rest 4 weeks prior to being culled and organs collected for freezing in OCT, paraffin embedding, blood collection for physiological measurements and tissue snap-freezing for RNA extraction.
For analysis of immune cell composition in whole blood, tail-vein blood was collected 2 days after last treatment. Whole blood was diluted in saline to a volume of […] and ran on a Sysmex XE2100 automated cell counter. Blood glucose levels were determined by collecting whole-blood from tail vein into heparinised tubes (Abraxis), 120-140 μL of whole-blood to be loaded onto a comprehensive diagnostic profile reagent rotor (Abraxis) and run on a VetScan VS2 Chemistry Analyzer (Abraxis: 500-7123).
Immunohistochemical staining—Slides were deparaffinised by washing slides twice in Histoclear™ for 5 min each, followed by 5 min washes in decreasing concentrations of ethanol with 100%, 75%, 50% & 25% ethanol washes before a final wash 5 min in dH2O. Heat induced epitope retrieval (HIER) was then performed in pressure cooker for 20 min using either antigen-unmasking solution, Citrate-based at pH 6.0 (VectorLab H-3300-250) or antigen-unmasking solution, Tris-based at pH 9.0 (VectorLab H-3301-250) depending on antibody manufacturers' instructions. Following HIER, slides were cooled on ice for 10 min and then washed in PBS for 5 min. For intracellular stains, sections were permeabilized with 0.2% Triton X-100 in PBS for 10 min and washed twice in PBS for 5 min. For NRAS staining in liver slides were washed in 0.1% H2O2 in PBS for 15 min followed by washing twice in PBS to reduce endogenous peroxide activity. Sections were marked using hydrophobic pen and Non-specific antigen binding was blocked by incubating slides with CAS-Block™ Histochemical reagent (ThermoFisher, 008120) for 30-45 min in a humidified chamber. Slides were then incubated with primary antibody overnight in a humidified chamber at 4° C. For experiments utilising p21 antibody, slides were incubated with primary p21 antibody (p21 [EPR18021], Abcam, 1:200) overnight in a humidified chamber at 4° C. Slides were washed twice in PBS for 5 min and incubated with secondary antibody SignalStain® Boost IHC detection reagent Mouse/Rabbit, HRP (Cell Signalling Technology, 8125) for 30-45 min. Next, slides were washed twice in PBS for 5 min and incubated for 2-10 min with SignalStain® DAB substrate kit (CST, 8059) to detect HRP signal. Signal development was stopped when visible positive cells could be detected on a microscope, by washing slides in dH2O. To counterstain DAB signal, slides were incubated for 30 s in Modified Mayer's Hematoxylin (Lillie's Modification) (DAKO), washed in dH2O, and incubated for 30 s in 0.05% Ammonium solution (PBS) followed by washing in dH2O. Prior to mounting coverslips with VectaMount aqueous mounting media (VectorLab, H-5501-60) slides were dehydrated by washing 1 min in 75% Ethanol, 5 min in 100% Ethanol and 5 min in Histoclear®.
Oil Red O staining for lipids was carried out on liver tissue in OCT was snap-frozen in liquid N2 and cryosectioned (15 μM). Sections were equilibrated to RT for 10 min and then stained with 0.5% Oil Red O solution (w/v, in isopropanol, Sigma, O1391) for 5 min, rinsed in tap water and counterstained with Mayer's hematoxylin for 30 s. Then sections were again rinsed in tap water for 30 min and coverslips mounted. Images were acquired on Zeiss AxioScan Z.1 and ImageJ quantification of Oil-red stain area relative to background tissue area performed for 3 fields per section. […]

SMILES: Cc1c(NS(=O)(=O)c2c(Cl)cc(-c3ccnc(N4CCNCC4)c3)cc2Cl)c(CC(C)C)nn1C [Compound 2]
- Liver fibrosis (Sirius red staining) (FIG. 23): normalized
- p21^CIP1-positive hepatocytes in the liver (FIG. 24A): reduction of p21^CIP1-positive hepatocytes
- Lipid accumulation (steatosis) in liver (FIG. 24D): reduction in this lipid accumulation
- Transcriptional signatures of collagen formation in liver (GSEA, FIG. 24E): downregulation
- Transcriptional signature of Fridman senescence in liver (GSEA, FIGS. 24B-C): downregulation
- Transcriptional signature of senescence-associated secretory phenotype in liver (GSEA, FIGS. 24B-C): downregulation
- Col1a1 mRNA in liver (RT-qPCR, FIGS. 24F-G): lower
- Col4a1 mRNA in liver (RT-qPCR, FIGS. 24F-G): lower
- ALP in blood (before 3rd round, FIGS. 22B-D): normalised
- ALT in blood (before 3rd round, FIGS. 22B-D): normalised
- Albumin in blood (before 3rd round, FIGS. 22B-D): normalised
- suPAR in blood (before 3rd round, versus vehicle, FIG. 22A): lower levels of suPAR
